Measured values taken from patent US12209102B2, “Heterocyclic compounds and uses thereof” (Kumquat Biosciences Inc., priority 2022, dated 2025).

Legend:
[1] = biological target: T1, K-Ras G12D (Homo sapiens, UniProt P01116, G12D); assay: HTRF resonance energy transfer assay, K-Ras G12D / SOS1 interaction; type: biochemical; settings: HTRF assay of Example 5; read-out: IC50 against K-Ras G12D
T1 construct: made in house; host or cells: E. coli BL21 (DE3)
In short: (§1)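 GST-tagged K-Ras (WT or mutant) bound to anti-GST-Eu donor was mixed with His-hSOS1 bound to anti-6His-XL665 acceptor in ~5 mM HEPES pH 7.4, 150 mM NaCl, 1 mM DTT, 0.05% BSA, 0.0025% Igepal. HTRF (ex 337, em 620/665 nm) was read after ~10 min or longer. IC50 came from the 665/620 ratio over duplicates from 10 μM to 0.01 μM.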

[2] = system: GP2D cells; assay: Ras cellular assay, growth of cells with K-Ras G12D mutation (CellTiter-Glo); type: cell-based; settings: cell growth, Example 9, G12D mutation, read-out: IC50 against GP2D cells
[3] = biological target: T2, K-Ras WT (Homo sapiens, UniProt P01116); assay: HTRF resonance energy transfer assay, K-Ras WT / SOS1 interaction; type: biochemical; settings: HTRF assay of Example 5; read-out: IC50 against K-Ras WT
T2 construct: made in house; host or cells: E. coli BL21 (DE3)
T2 sequence (P01116 1-188 isoform P01116-2): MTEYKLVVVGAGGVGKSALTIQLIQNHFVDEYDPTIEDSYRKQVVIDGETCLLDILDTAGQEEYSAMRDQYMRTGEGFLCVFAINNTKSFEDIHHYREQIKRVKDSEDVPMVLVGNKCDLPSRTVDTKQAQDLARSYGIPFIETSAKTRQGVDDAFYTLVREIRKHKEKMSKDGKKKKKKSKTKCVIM
In short: as §1

[4] = biological target: T3, K-Ras G12S (Homo sapiens, UniProt P01116, G12S); assay: HTRF resonance energy transfer assay, K-Ras G12S / SOS1 interaction; type: biochemical; settings: HTRF assay of Example 5; read-out: IC50 against K-Ras G12S
T3 construct: made in house; host or cells: E. coli BL21 (DE3)
T3 sequence (P01116 1-188 isoform P01116-2 G12S): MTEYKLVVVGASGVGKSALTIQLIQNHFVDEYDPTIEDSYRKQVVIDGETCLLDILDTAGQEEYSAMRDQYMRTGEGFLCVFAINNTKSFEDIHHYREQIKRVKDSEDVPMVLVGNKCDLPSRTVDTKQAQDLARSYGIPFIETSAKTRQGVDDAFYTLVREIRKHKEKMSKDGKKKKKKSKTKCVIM
In short: as §1

[5] = system: SW620 cells; assay: Ras cellular assay, growth of cells with K-Ras G12V mutation (CellTiter-Glo); type: cell-based; settings: Homo sapiens, SW-620; cell growth, Example 9, G12V mutation; read-out: IC50 against SW620 cells
In short: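 SW620 (K-Ras G12V) cells, e.g. 800/well in RPMI-1640 with 10% heat-inactivated FBS on standard or ultra-low attachment plates, were dosed the day after plating with e.g. a 10-point 3-fold series. Viability by CellTiter-Glo luminescence about 6 days later; IC50 from four-parameter fit.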

[6] = biological target: T4, K-Ras G12V (Homo sapiens, UniProt P01116, G12V); assay: HTRF resonance energy transfer assay, K-Ras G12V / SOS1 interaction; type: biochemical; settings: HTRF assay of Example 5; read-out: IC50 against K-Ras G12V
T4 construct: made in house; host or cells: E. coli BL21 (DE3)
T4 sequence (P01116 1-188 isoform P01116-2 G12V): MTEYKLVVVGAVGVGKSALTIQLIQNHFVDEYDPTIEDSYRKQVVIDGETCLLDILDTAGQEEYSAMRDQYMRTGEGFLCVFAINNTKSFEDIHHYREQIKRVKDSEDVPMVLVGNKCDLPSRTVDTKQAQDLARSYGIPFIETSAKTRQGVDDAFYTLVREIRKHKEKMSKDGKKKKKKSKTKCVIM
In short: as §1

T1 sequence (P01116 1-188 isoform P01116-2 G12D): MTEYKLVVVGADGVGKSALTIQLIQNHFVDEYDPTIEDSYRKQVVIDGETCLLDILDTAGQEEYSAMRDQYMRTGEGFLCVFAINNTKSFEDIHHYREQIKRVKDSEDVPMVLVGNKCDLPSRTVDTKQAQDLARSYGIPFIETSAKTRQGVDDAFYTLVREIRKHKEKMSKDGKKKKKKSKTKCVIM

| IC50 [1] | IC50 [3] | IC50 [4] | IC50 [5] | IC50 [6] | Structure (SMILES) | IC50 [2] |
| --- | --- | --- | --- | --- | --- | --- |
| < 100 nM | < 100 nM | < 100 nM | < 5000 nM | < 100 nM | CN(C)C1(CN2CCOc3c(Cl)c(-c4ccc(F)c5sc(N)c(C#N)c45)c(F)c4nc(OC[C@@]56CCCN5C[C@H](F)C6)nc2c34)CCC1 [Compound 606, 2-amino-4-(8-chloro-4-((1-(dimethylamino)cyclobutyl)methyl)-10-fluoro-2-(((2R,7aS)-2-fluorotetrahydro-1H-pyrrolizin-7a(5H)-yl)methoxy)-5,6-dihydro-4H-[1,4]oxazepino[5,6,7-de]quinazolin-9-yl)-7-fluorobenzo[b]thiophene-3-carbonitrile] | < 500 nM |
| < 100 nM | < 100 nM | < 100 nM | < 5000 nM | < 100 nM | N#Cc1c(N)sc2c(F)ccc(-c3c(Cl)c4c5c(nc(OC[C@@]67CCCN6C[C@H](F)C7)nc5c3F)N(CCC(F)F)[C@@H](CNC=O)CO4)c12 [Compound 614, N-(((5S)-9-(2-amino-3-cyano-7-fluorobenzo[b]thiophen-4-yl)-8-chloro-4-(3,3-difluoropropyl)-10-fluoro-2-(((2R,7aS)-2-fluorotetrahydro-1H-pyrrolizin-7a(5H)-yl)methoxy)-5,6-dihydro-4H-[1,4]oxazepino[5,6,7-de]quinazolin-5-yl)methyl)formamide] | < 500 nM |
| < 100 nM | < 100 nM | < 100 nM | < 5000 nM | < 100 nM | N#Cc1c(N)sc2c(F)ccc(-c3c(Cl)c4c5c(nc(OC[C@@]67CCCN6C[C@H](F)C7)nc5c3F)N(CC3CC3C#N)[C@@H](C3(O)CC3)CO4)c12 (stereo partly drawn) [Compound 876, 2-amino-4-((5R)-8-chloro-4-((2-cyanocyclopropyl)methyl)-10-fluoro-2-(((2R,7aS)-2-fluorotetrahydro-1H-pyrrolizin-7a(5H)-yl)methoxy)-5-(1-hydroxycyclopropyl)-5,6-dihydro-4H-[1,4]oxazepino[5,6,7-de]quinazolin-9-yl)-7-fluorobenzo[b]thiophene-3-carbonitrile] | < 500 nM |
| < 100 nM | < 100 nM | < 100 nM | < 5000 nM | < 100 nM | CN(C)CCCN1c2nc(OC[C@@]34CCCN3C[C@H](F)C4)nc3c(F)c(-c4ccc(F)c5sc(N)c(C#N)c45)c(Cl)c(c23)OCC1CC#N (stereo partly drawn) [Compound 896, 2-amino-4-(8-chloro-5-(cyanomethyl)-4-(3-(dimethylamino)propyl)-10-fluoro-2-(((2R,7aS)-2-fluorotetrahydro-1H-pyrrolizin-7a(5H)-yl)methoxy)-5,6-dihydro-4H-[1,4]oxazepino[5,6,7-de]quinazolin-9-yl)-7-fluorobenzo[b]thiophene-3-carbonitrile] | < 500 nM |
| < 100 nM | < 100 nM | < 100 nM | < 5000 nM | < 100 nM | CC(C)(O)[C@H]1COc2c(Cl)c(-c3ccc(F)c4sc(N)c(C#N)c34)c(F)c3nc(OC[C@@]45CCCN4C[C@H](F)C5)nc(c23)N1 [Compound 815, 2-amino-4-((5R)-8-chloro-10-fluoro-2-(((2R,7aS)-2-fluorotetrahydro-1H-pyrrolizin-7a(5H)-yl)methoxy)-5-(2-hydroxypropan-2-yl)-5,6-dihydro-4H-[1,4]oxazepino[5,6,7-de]quinazolin-9-yl)-7-fluorobenzo[b]thiophene-3-carbonitrile] | < 500 nM |
| < 100 nM | < 100 nM | < 100 nM | < 5000 nM | < 100 nM | N#Cc1c(N)sc2c(F)ccc(-c3c(Cl)c4c5c(nc(OC[C@@]67CCCN6C[C@H](F)C7)nc5c3F)N(C3CCCCC(O)C3)CCO4)c12 (stereo partly drawn) [Compound 795, 2-amino-4-(8-chloro-10-fluoro-2-(((2R,7aS)-2-fluorotetrahydro-1H-pyrrolizin-7a(5H)-yl)methoxy)-4-(3-hydroxycycloheptyl)-5,6-dihydro-4H-[1,4]oxazepino[5,6,7-de]quinazolin-9-yl)-7-fluorobenzo[b]thiophene-3-carbonitrile] | < 500 nM |
| < 100 nM | < 100 nM | < 100 nM | < 5000 nM | < 100 nM | N#Cc1c(N)sc2c(F)ccc(-c3c(Cl)c4c5c(nc(OC[C@@]67CCCN6C[C@H](F)C7)nc5c3F)N(CC(F)F)C(C3(F)CC3)CO4)c12 (stereo partly drawn) [Compound 943, 2-amino-4-(8-chloro-4-(2,2-difluoroethyl)-10-fluoro-5-(1-fluorocyclopropyl)-2-(((2R,7aS)-2-fluorotetrahydro-1H-pyrrolizin-7a(5H)-yl)methoxy)-5,6-dihydro-4H-[1,4]oxazepino[5,6,7-de]quinazolin-9-yl)-7-fluorobenzo[b]thiophene-3-carbonitrile] | < 500 nM |
| < 100 nM | < 100 nM | < 100 nM | < 5000 nM | < 100 nM | CC(O)C1COc2c(Cl)c(-c3ccc(F)c4sc(N)c(C#N)c34)c(F)c3nc(OC[C@@]45CCCN4C[C@H](F)C5)nc(c23)N1CC1CCNCC1 (stereo partly drawn) [Compound 1125, 2-amino-4-(8-chloro-10-fluoro-2-(((2R,7aS)-2-fluorotetrahydro-1H-pyrrolizin-7a(5H)-yl)methoxy)-5-(1-hydroxyethyl)-4-(piperidin-4-ylmethyl)-5,6-dihydro-4H-[1,4]oxazepino[5,6,7-de]quinazolin-9-yl)-7-fluorobenzo[b]thiophene-3-carbonitrile] | < 500 nM |
| < 100 nM | < 100 nM | < 100 nM | < 5000 nM | < 100 nM | C[C@H](O)[C@H]1[C@H](C)Oc2c(Cl)c(-c3ccc(F)c4sc(N)c(C#N)c34)c(F)c3nc(OC[C@@]45CCCN4C[C@H](F)C5)nc(c23)N1CC(F)F [Compound 1042, 2-amino-4-((5S,6S)-8-chloro-4-(2,2-difluoroethyl)-10-fluoro-2-(((2R,7aS)-2-fluorotetrahydro-1H-pyrrolizin-7a(5H)-yl)methoxy)-5-((S)-1-hydroxyethyl)-6-methyl-5,6-dihydro-4H-[1,4]oxazepino[5,6,7-de]quinazolin-9-yl)-7-fluorobenzo[b]thiophene-3-carbonitrile] | < 500 nM |
| < 100 nM | < 100 nM | < 100 nM | < 5000 nM | < 100 nM | N#Cc1c(N)sc2c(F)ccc(-c3c(Cl)c4c5c(nc(OC[C@@]67CCCN6C[C@H](F)C7)nc5c3F)N(CC(F)F)[C@@H](C(F)(F)F)CO4)c12 [Compound 672, 2-amino-4-((R)-8-chloro-4-(2,2-difluoroethyl)-10-fluoro-2-(((2R,7aS)-2-fluorotetrahydro-1H-pyrrolizin-7a(5H)-yl)methoxy)-5-(trifluoromethyl)-5,6-dihydro-4H-[1,4]oxazepino[5,6,7-de]quinazolin-9-yl)-7-fluorobenzo[b]thiophene-3-carbonitrile] | < 500 nM |
| < 100 nM | < 100 nM | < 100 nM | < 5000 nM | < 100 nM | CN(C)CCN1c2nc(OC[C@@]34CCCN3C[C@H](F)C4)nc3c(F)c(-c4ccc(F)c5sc(N)c(C#N)c45)c(Cl)c(c23)OCC1CC#N (stereo partly drawn) [Compound 885, 2-amino-4-(8-chloro-5-(cyanomethyl)-4-(2-(dimethylamino)ethyl)-10-fluoro-2-(((2R,7aS)-2-fluorotetrahydro-1H-pyrrolizin-7a(5H)-yl)methoxy)-5,6-dihydro-4H-[1,4]oxazepino[5,6,7-de]quinazolin-9-yl)-7-fluorobenzo[b]thiophene-3-carbonitrile] | < 500 nM |
| < 100 nM | < 100 nM | < 100 nM | < 5000 nM | < 100 nM | C[C@H]1C(C(F)F)Oc2c(Cl)c(-c3ccc(F)c4sc(N)c(C#N)c34)c(F)c3nc(OC[C@@]45CCCN4C[C@H](F)C5)nc(c23)N1CC(F)F (stereo partly drawn) [Compound 723, 2-amino-4-((5S)-8-chloro-4-(2,2-difluoroethyl)-6-(difluoromethyl)-10-fluoro-2-(((2R,7aS)-2-fluorotetrahydro-1H-pyrrolizin-7a(5H)-yl)methoxy)-5-methyl-5,6-dihydro-4H-[1,4]oxazepino[5,6,7-de]quinazolin-9-yl)-7-fluorobenzo[b]thiophene-3-carbonitrile] | < 500 nM |
| < 100 nM | < 100 nM | < 100 nM | < 5000 nM | < 100 nM | C[C@H](O)[C@H]1COc2c(Cl)c(-c3ccc(F)c4sc(N)c(C#N)c34)c(F)c3nc(OC[C@@]45CCCN4C[C@H](F)C5)nc(c23)N1 [Compound 775, 2-amino-4-((5R)-8-chloro-10-fluoro-2-(((2R,7aS)-2-fluorotetrahydro-1H-pyrrolizin-7a(5H)-yl)methoxy)-5-((S)-1-hydroxyethyl)-5,6-dihydro-4H-[1,4]oxazepino[5,6,7-de]quinazolin-9-yl)-7-fluorobenzo[b]thiophene-3-carbonitrile] | < 500 nM |
